Measured values from US20160016951A1 (Merck Patent GmbH, priority 2014, published 2016).

target: T1, CDK8 (CDK8/CycC) (Homo sapiens, UniProt P49336); assay: FRET based Lanthascreen binding competition assay; conditions: not given
T1 construct: purchased Invitrogen PV4402
Description: FRET based Lanthascreen binding competition assay: A dye-labeled ATP competitive probe served as a FRET acceptor upon binding to CDK8 labeled with a strepavidin —Eu-chelate (via abiotinylated anti His antibody). […] In case this probe was competed by an inhibitor as such a signal cannot be generated any more. The CDK8 used for this assay was a protein co-expressed with CycC.
The assay procedure for an assay in a 1536 well plate was performed according to the following: 2 μL CDK8/biotin-anti-His Ab/SA-Eu mix in Assay buffer were pipetted into the wells of a micro plate.
1 μL compound in 20 mM Hepes buffer/5% DMSO was added. The plate was shaken for 30 sec and incubated for 20 min at RT. 2 μL Alexa647-probe in assay buffer were added. The plate was shaken for 30 sec again and incubated for 60 min at RT in the dark. Then the plate was read out on a Perkin Elmer Envision (mode LANCE/TRF, excitation 340 nm emission 650 nm).

T1 sequence (P49336 whole entry): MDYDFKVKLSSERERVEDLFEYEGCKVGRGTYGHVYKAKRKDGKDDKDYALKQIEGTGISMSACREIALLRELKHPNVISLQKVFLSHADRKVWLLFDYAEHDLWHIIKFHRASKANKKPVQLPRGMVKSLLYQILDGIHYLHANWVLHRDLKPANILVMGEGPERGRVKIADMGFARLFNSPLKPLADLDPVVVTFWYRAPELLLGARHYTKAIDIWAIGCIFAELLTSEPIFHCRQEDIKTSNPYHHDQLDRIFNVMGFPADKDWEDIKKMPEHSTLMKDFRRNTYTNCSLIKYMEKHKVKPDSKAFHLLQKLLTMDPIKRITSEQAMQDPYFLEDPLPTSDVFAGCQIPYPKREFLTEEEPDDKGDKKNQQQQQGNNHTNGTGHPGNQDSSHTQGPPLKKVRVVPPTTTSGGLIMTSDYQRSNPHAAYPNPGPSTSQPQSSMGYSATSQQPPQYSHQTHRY
T1 sequence (P24863 whole entry partner): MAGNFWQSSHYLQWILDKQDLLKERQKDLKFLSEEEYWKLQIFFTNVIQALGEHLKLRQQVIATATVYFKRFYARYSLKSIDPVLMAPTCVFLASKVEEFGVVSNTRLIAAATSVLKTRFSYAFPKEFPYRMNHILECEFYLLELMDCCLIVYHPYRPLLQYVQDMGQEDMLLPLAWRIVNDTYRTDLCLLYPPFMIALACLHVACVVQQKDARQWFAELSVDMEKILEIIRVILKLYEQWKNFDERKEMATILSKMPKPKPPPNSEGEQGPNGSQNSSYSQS

For COC1CN(C(=O)c2ccc3cncc(-c4ccc5nn(CC(C)(C)O)cc5c4)c3c2)C1 [Compound 133, (4-(2-(2-hydroxy-2-methylpropyl)-2H-indazol-5-yl)isoquinolin-6-yl)(3-methoxyazetidin-1-yl)methanone], the IC50 was 10 to 100 nM.

same assay, conditions: 5 nM CDK8/CycC, 10 nM Alexa647-Tracer, 1% DMSO, 60 min at RT; read-out: IC50 CDK8 binding

First: Cn1cc(-c2ccc(-c3cncc4ccc(C(=O)N5CCNCC5)cc34)cc2)cn1 [Compound 102, (4-(4-(1-methyl-1H-pyrazol-4-yl)phenyl)isoquinolin-6-yl)(piperazin-1-yl)methanone]
Second: Cn1cc(-c2ccc(-c3cncc4ccc(C(=O)N5CCN(C(=O)OC(C)(C)C)CC5)cc34)cc2)cn1 [Compound 124, tert-butyl 4-(4-(4-(1-methyl-1H-pyrazol-4-yl)phenyl)isoquinoline-6-carbonyl)piperazine-1-carboxylate]
The IC50 of the first is lower: < 10 nM for the first, 101 to 500 nM for the second.

Compared with COCCNc1ccc2cncc(-c3ccc(-c4cnn(C)c4)cc3)c2c1 [Compound 105, (2-Methoxy-ethyl)-{4-[4-(1-methyl-1H-pyrazol-4-yl)-phenyl]-isoquinolin-6-yl}-amine], COCC(=O)Nc1ccc2cncc(-c3ccc(-c4cnn(C)c4)cc3)c2c1 [Compound 121, 2-Methoxy-N-{4-[4-(1-methyl-1H-pyrazol-4-yl)-phenyl]-isoquinolin-6-yl}-acetamide] is higher in IC50: < 10 nM for the first, 10 to 100 nM for the second.

CN1c2ccc(-c3cncc4ccc(-c5ncco5)cc34)cc2CS1(=O)=O [Compound 107, 1-methyl-5-(6-(oxazol-2-yl)isoquinolin-4-yl)-1,3-dihydrobenzo[c]isothiazole 2,2-dioxide] and CN1c2ccc(-c3cncc4ccc(N5CCCC5=O)cc34)cc2CS1(=O)=O [Compound 129, 1-(4-(1-Methyl-2,2-dioxido-1,3-dihydrobenzo[c]isothiazol-5-yl)isoquinolin-6-yl)pyrrolidin-2-one] fall in the same range of IC50: 10 to 100 nM for the first, 10 to 100 nM for the second.

Cn1cc(-c2ccc(-c3cncc4ccccc34)cc2)cn1 [Compound 109, 4-(4-(1-methyl-1H-pyrazol-4-yl)phenyl)isoquinoline] and Cn1cc(-c2ccc(-c3cncc4ccc(C#N)cc34)cc2)cn1 [Compound 118, 4-(4-(1-methyl-1H-pyrazol-4-yl)phenyl)isoquinoline-6-carbonitrile] fall in the same range of IC50: 10 to 100 nM for the first, 10 to 100 nM for the second.

First: Cn1cc(-c2ccc(-c3cncc4ccc(N5CCCCS5(=O)=O)cc34)cc2)cn1 [Compound 110, 6-(1,1-Dioxo-[1,2]thiazinan-2-yl)-4-[4-(1-methyl-1H-pyrazol-4-yl)-phenyl]-isoquinoline]
Second: Cn1cc(-c2ccc(-c3cncc4ccc(N5CCCCC5=O)cc34)cc2)cn1 [Compound 127, 1-{4-[4-(1-Methyl-1H-pyrazol-4-yl)-phenyl]-isoquinolin-6-yl}-piperidin-2-one]
The IC50 of the first is lower: 10 to 100 nM for the first, 501 to 1000 nM for the second.

CC1CC(=O)N(c2ccc3cncc(-c4ccc(-c5cnn(C)c5)cc4)c3c2)C1 (stereo not shown) [Compound 111, 4-Methyl-1-{4-[4-(1-methyl-1H-pyrazol-4-yl)-phenyl]-isoquinolin-6-yl}-pyrrolidin-2-one] and CC1CCC(=O)N1c1ccc2cncc(-c3ccc(-c4cnn(C)c4)cc3)c2c1 (stereo not shown) [Compound 114, 5-Methyl-1-{4-[4-(1-methyl-1H-pyrazol-4-yl)-phenyl]-isoquinolin-6-yl}-pyrrolidin-2-one] fall in the same range of IC50: 10 to 100 nM for the first, 10 to 100 nM for the second.

O=C(c1ccc2cnccc2c1)N1CCC[C@H]1c1ccc(Cl)cc1 [Compound 113, (S)-(2-(4-chlorophenyl)pyrrolidin-1-yl)(isoquinolin-6-yl)methanone] and O=C(c1ccc2cnccc2c1)N1CCC[C@H]1c1ccccc1 [Compound 122, (S)-isoquinolin-6-yl(2-phenylpyrrolidin-1-yl)methanone] fall in the same range of IC50: 10 to 100 nM for the first, 10 to 100 nM for the second.

Cn1cc(-c2ccc(-c3cncc4ccc(N5CCC(=O)C5)cc34)cc2)cn1 [Compound 115, 1-{4-[4-(1-Methyl-1H-pyrazol-4-yl)-phenyl]-isoquinolin-6-yl}-pyrrolidin-3-one] and Cn1cc(-c2ccc(-c3cncc4ccc(N5CCNC(=O)C5)cc34)cc2)cn1 [Compound 116, 4-{4-[4-(1-Methyl-1H-pyrazol-4-yl)-phenyl]-isoquinolin-6-yl}-piperazin-2-one] fall in the same range of IC50: 10 to 100 nM for the first, 10 to 100 nM for the second.

Cn1cc(-c2ccc(-c3cncc4ccc(-c5nnn(C)n5)cc34)cc2)cn1 [Compound 117, 4-(4-(1-methyl-1H-pyrazol-4-yl)phenyl)-6-(2-methyl-2H-tetrazol-5-yl)isoquinoline] and Cn1cc(-c2ccc(-c3cncc4ccc(-c5nnnn5C)cc34)cc2)cn1 [Compound 123, 4-(4-(1-methyl-1H-pyrazol-4-yl)phenyl)-6-(1-methyl-1H-tetrazol-5-yl)isoquinoline] fall in the same range of IC50: 10 to 100 nM for the first, 10 to 100 nM for the second.

Cn1ncc2cc(-c3cncc4ccc(C#N)cc34)ccc21 [Compound 120, 4-(1-methyl-1H-indazol-5-yl)isoquinoline-6-carbonitrile] and N#Cc1ccc2cncc(-c3ccc4c(c3)NC(=O)C4)c2c1 [Compound 148, 4-(2-oxoindolin-6-yl)isoquinoline-6-carbonitrile] fall in the same range of IC50: 10 to 100 nM for the first, 10 to 100 nM for the second.

First: CC(=O)N1CCN(c2ccc3cncc(-c4ccc(-c5cnn(C)c5)cc4)c3c2)CC1 [Compound 125, 1-(4-{4-[4-(1-Methyl-1H-pyrazol-4-yl)-phenyl]-isoquinolin-6-yl}-piperazin-1-yl)-ethanone]
Second: Cn1cc(-c2ccc(-c3cncc4ccc(N5CCCC5=O)cc34)cc2)cn1 [Compound 128, 1-(4-(4-(1-Methyl-1H-pyrazol-4-yl)phenyl)isoquinolin-6-yl)pyrrolidin-2-one]
The IC50 of the first is higher: 101 to 500 nM for the first, 10 to 100 nM for the second. The second is the more potent here.

First: Cn1cc(-c2ccc(-c3cncc4ccc(N5C(=O)CCC5=O)cc34)cc2)cn1 [Compound 126, 1-{4-[4-(1-Methyl-1H-pyrazol-4-yl)-phenyl]-isoquinolin-6-yl}-pyrrolidine-2,5-dione]
Second: CN(c1ccc2cncc(-c3ccc(-c4cnn(C)c4)cc3)c2c1)S(C)(=O)=O [Compound 139, N-methyl-N-(4-(4-(1-methyl-1H-pyrazol-4-yl)phenyl)isoquinolin-6-yl)methanesulfonamide]
The IC50 of the first is higher: 101 to 500 nM for the first, 10 to 100 nM for the second. The second is the more potent here.

COC1CN(C(=O)c2ccc3cncc(-c4ccc(-c5cnn(CC(C)(C)O)c5)cc4)c3c2)C1 [Compound 131, (4-(4-(1-(2-hydroxy-2-methylpropyl)-1H-pyrazol-4-yl)phenyl)isoquinolin-6-yl)(3-methoxyazetidin-1-yl)methanone] and CC(C)(O)Cn1cc(-c2ccc(-c3cncc4ccc(C(=O)N5CCCC5)cc34)cc2)cn1 [Compound 134] fall in the same range of IC50: 10 to 100 nM for the first, 10 to 100 nM for the second.

First: COC1CN(C(=O)c2ccc3cncc(-c4ccc5c(cnn5CC(C)(C)O)c4)c3c2)C1 [Compound 132, (4-(1-(2-hydroxy-2-methylpropyl)-1H-indazol-5-yl)isoquinolin-6-yl)(3-methoxyazetidin-1-yl)methanone]
Second: CC(C)(O)Cn1cc(-c2ccc(-c3cncc4ccc(C(=O)N5CC(F)(F)C5)cc34)cc2)cn1 [Compound 136]
The IC50 of the first is higher: 101 to 500 nM for the first, 10 to 100 nM for the second. The second is the more potent here.

Compared with CC(C)(O)Cn1cc(-c2ccc(-c3cncc4ccc(C(=O)N5CCOCC5)cc34)cc2)cn1 [Compound 135], CC(C)(O)Cn1cc(-c2ccc(-c3cncc4ccc(NS(C)(=O)=O)cc34)cc2)cn1 [Compound 138, N-(4-(4-(1-(2-hydroxy-2-methylpropyl)-1H-pyrazol-4-yl)phenyl)isoquinolin-6-yl)methanesulfonamide] is lower in IC50: 10 to 100 nM for the first, < 10 nM for the second.

First: Nc1nccc2cc(C(=O)N3CCC[C@H]3c3ccc(Cl)cc3)ccc12 [Compound 137, (S)-(1-aminoisoquinolin-6-yl)(2-(4-chlorophenyl)pyrrolidin-1-yl)methanone]
Second: O=C1Cc2ccc(-c3cncc4ccc(C(=O)N5CCC5)cc34)cc2N1 [Compound 145, 6-(6-(azetidine-1-carbonyl)isoquinolin-4-yl)indolin-2-one]
The IC50 of the first is higher: 10 to 100 nM for the first, < 10 nM for the second.

First: COC1CN(C(=O)c2ccc3c(N)ncc(-c4ccc5c(cnn5C)c4)c3n2)C1 [Compound 140, (5-amino-8-(1-methyl-1H-indazol-5-yl)-1,6-naphthyridin-2-yl)(3-methoxyazetidin-1-yl)methanone]
Second: COC1CN(C(=O)c2ccc3cncc(-c4ccc(-c5cnn(C(C)C)c5)cc4)c3n2)C1 [Compound 153, (8-(4-(1-isopropyl-1H-pyrazol-4-yl)phenyl)-1,6-naphthyridin-2-yl)(3-methoxyazetidin-1-yl)methanone]
The IC50 of the first is higher: 10 to 100 nM for the first, < 10 nM for the second.

First: O=C1Cc2ccc(-c3cncc4ccc(C(=O)N5CC(F)(F)C5)cc34)cc2N1 [Compound 146, 6-(6-(3,3-difluoroazetidine-1-carbonyl)isoquinolin-4-yl)indolin-2-one]
Second: COC1(C)CN(C(=O)c2ccc3cncc(-c4ccc(-c5cnn(C)c5)cc4)c3n2)C1 [Compound 149, (3-methoxy-3-methylazetidin-1-yl)(8-(4-(1-methyl-1H-pyrazol-4-yl)phenyl)-1,6-naphthyridin-2-yl)methanone]
The IC50 of the first is higher: 10 to 100 nM for the first, < 10 nM for the second.

Compared with CC(C)(O)Cn1cc(-c2ccc(-c3cncc4ccc(N5C(=O)Cc6ccccc65)cc34)cc2)cn1 [Compound 150, 1-(4-(4-(1-(2-hydroxy-2-methylpropyl)-1H-pyrazol-4-yl)phenyl)isoquinolin-6-yl)indolin-2-one], Cn1cc(-c2ccc(-c3cncc4ccc(NS(=O)(=O)c5ccccc5)cc34)cc2)cn1 [Compound 152, N-{4-[4-(1-Methyl-1H-pyrazol-4-yl)-phenyl]-isoquinolin-6-yl}-benzenesulfonamide] is lower in IC50: 10 to 100 nM for the first, < 10 nM for the second. The second is the more potent here.

With CC(C)(O)Cn1cc2cc(-c3cncc4ccc(NS(C)(=O)=O)cc34)ccc2n1 [Compound 151, N-(4-(2-(2-hydroxy-2-methylpropyl)-2H-indazol-5-yl)isoquinolin-6-yl)methanesulfonamide] the IC50 was < 10 nM.
